In US20190054051A1, “DOPA Formulations for Treatments of Parkinson's Disease” (The Board of Trustees of the Leland Stanford Junior …, priority 2017, published 2019):

Key:
GRK6 = assay: Western blot of GRK6 in intact and lesioned striatum; format: in vivo, mice; settings: normalized to actin
Experimental: (§1) After behavioral testing, mice again received their assigned injection and then, 45 minutes later, were decapitated under anesthesia. Tissue samples were processed as follows. Briefly, the brain was dissected, rapidly frozen on dry ice, and stored at −80° C. Striatal tissue was collected from 100 μm coronal slices cut at the level of striatum using a cryostat (Leica CM1950, Leica Biosystems Inc, Buffalo Groove, Ill.). Striatal samples from the intact and the lesioned hemisphere were separately collected in 150p1 of lysis solution (Totally RNA, Ambion, Austin, Tex.). Care was taken to make sure that the tissue samples were collected from similar regions in all the brain samples analyzed, since there are differences in the expression of GRKs from rostral to caudal CPu. […]
(§2) Western blots were quantified using band densitometry in Image J software (NIH version). […] Results are represented as group mean±SEM and analyzed using one-way or repeated-measures ANOVA (RM-ANOVA), with post hoc Bonferroni tests. The mouse cylinder test was analyzed with RM-ANOVA, with group (DOPA and DOPA-ranitidine formulations) as a between-group factor and saline vs. DOPA treatment as a within-group factor. AIMs scores were analyzed using the Kruskal Wallis test for pre-testing (DOPA injected animals) and the Mann-Whitney U test for the post-testing sessions (DOPA vs DOPA-ranitidine formulations). […]

ERK = assay: Western blot of ppERK and total ERK in striatum; format: in vivo, mice; settings: 45 minutes after last injection
Experimental: as §1, §2

Akt = assay: Western blot of phospho Akt (T308, S473) in striatum; parameters: species or system mice; settings: mouse, in vivo
Experimental: After behavioral testing, mice again received their assigned injection and then, 45 minutes later, were decapitated under anesthesia. Tissue samples were processed as follows. Briefly, the brain was dissected, rapidly frozen on dry ice, and stored at −80° C. Striatal tissue was collected from 100 μm coronal slices cut at the level of striatum using a cryostat (Leica CM1950, Leica Biosystems Inc, Buffalo Groove, Ill.). Striatal samples from the intact and the lesioned hemisphere were separately collected in 150p1 of lysis solution (Totally RNA, Ambion, Austin, Tex.). Care was taken to make sure that the tissue samples were collected from similar regions in all the brain samples analyzed, since there are differences in the expression of GRKs from rostral to caudal CPu. Protein concentration was estimated using Bradford reagent (Bio-Rad, Hercules, Calif.). 200m protein was precipitated with 100% methanol and centrifuged at 10000 g for 10 mins in a table top centrifuge. The pellet was re-suspended in 90% methanol and centrifuged for an additional 10 mins at 10000 g. The supernatant was discarded and the pellet was air dried and dissolved in 400 μL of β-mercaptoethanol containing 2× Laemmli sample buffer (Biorad, Hercules, Calif.), for a final concentration of 0.5 mg/mL. These samples were stored at −80° C. until use. Samples were electrophoresed through 10% polyacrylamide gels and transferred on to Immobilon-P PVDF membranes (Millipore, Bedford, Mass.) and processed. […] Western blots were quantified using band densitometry in Image J software (NIH version). […] Results are represented as group mean±SEM and analyzed using one-way or repeated-measures ANOVA (RM-ANOVA), with post hoc Bonferroni tests. The mouse cylinder test was analyzed with RM-ANOVA, with group (DOPA and DOPA-ranitidine formulations) as a between-group factor and saline vs. DOPA treatment as a within-group factor. AIMs scores were analyzed using the Kruskal Wallis test for pre-testing (DOPA injected animals) and the Mann-Whitney U test for the post-testing sessions (DOPA vs DOPA-ranitidine formulations). […]

GRK3 = assay: Western blot of GRK3 in intact and lesioned striatum; format: in vivo, mice; settings: normalized to actin; formulation and ranitidine groups compared with the DOPA-treated group, Bonferroni post-hoc
Experimental: as §1, §2

N[C@@H](Cc1ccc(O)c(O)c1)C(=O)O [L-DOPA, L-3,4-dihydroxyphenylalanine]
GRK6 in the lesioned hemisphere versus the intact control side (GRK6): Only a marginal degree of down regulation | ERK phosphorylation (ppERK) in the lesioned hemisphere (ERK): increased | Akt phosphorylation at Ser473 (Akt): not statistically significant | Akt phosphorylation at Thr308 in the lesioned striatum (Akt): elevated in the lesioned striatum | GRK3 in the lesioned hemisphere as % expression of the intact side (GRK3): significantly reduced in the lesioned hemisphere

CN/C(=C\[N+](=O)[O-])NCCSCc1ccc(CN(C)C)o1 [Ranitidine, N-(2-[(5-[(dimethylamino)methyl]furan-2-yl)methylthio]ethyl)-N′-methyl-2-nitroethene-1,1-diamine]
GRK6 in the lesioned hemisphere versus the intact control side (GRK6): enhanced the expression | ERK phosphorylation (ppERK) in the lesioned hemisphere (ERK): increased | Akt phosphorylation at Thr308 in the lesioned striatum (Akt): no effect | GRK3 in the lesioned hemisphere as % expression of the intact side (GRK3): significantly attenuated
